From patent US8158647B2, “Substituted pyrrolopyridines and pyrazolopyridines as kinase modulators” (SGX Pharmaceuticals, Inc., priority 2007, dated 2012)

Key:
[1] = target: T1, purified and unphosphorylated T315I Abl kinase domain (ABL_T315I_0P) (Mus musculus, UniProt P00520, T315I); assay: c-Abl T315I (unphosphorylated kinase domain) pyruvate kinase/lactate dehydrogenase coupled enzyme assay; assay type: biochemical; conditions: 10 μM ATP
T1 construct: The c-Abl T3151 KD (kinase domain) was purified as follows; Met-Ser-Leu (vector-derived residues) (N); made in house; host or cells: E. coli BL21(DE3) strains (Codon+RIL, or pSA0145 for the lambda phosphatase co-expression plasmid)
T1 sequence (P00520 242-493 T315I limits assumed): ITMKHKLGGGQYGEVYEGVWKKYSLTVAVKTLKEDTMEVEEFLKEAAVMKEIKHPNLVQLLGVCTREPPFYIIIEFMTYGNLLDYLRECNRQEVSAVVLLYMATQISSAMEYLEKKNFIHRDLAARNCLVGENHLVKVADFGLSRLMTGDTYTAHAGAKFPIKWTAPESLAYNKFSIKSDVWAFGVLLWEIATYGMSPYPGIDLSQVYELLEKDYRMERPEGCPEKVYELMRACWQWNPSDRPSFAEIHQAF
Source text: Although the first of these examples uses the kinase domain of a mutant form of Abl T315I (“Abl T315I KD”), the kinase assays may use various forms of mutant and wild type enzymes, including, for example, the entire protein, the kinase domain, or a portion thereof (e.g. Abl Y393F). The kinases used in the assays may also be of varying phosphorylation states. In the c-Abl example, a mutant kinase at a zero phosphorylation state was used.
c-Abl Pyruvate Kinase/Lactate Dehydrogenase Coupled Enzyme Assay
In the c-Abl Pyruvate Kinase (PK)/Lactate Dehydrogenase (LDH) Coupled Assay the protein kinase dependant phosphorylation of a substrate peptide was coupled to the oxidation of NADH. The oxidation of NADH to NAD+ was detected by monitoring a decrease in absorbance at 340 nm.
Materials: Abl substrate peptide=EAIYAAPFAKKK-OH (SEQ ID NO: 1) (Biopeptide, San Diego, Calif.); […]NADH (Sigma Cat#N-8129, FW=709.4); 2M MgCl2; 1M HEPES buffer, pH 7.5; Phosphoenolpyruvate (PEP) (Sigma Cat#P-7002, FW=234); Lactate dehydrogenase (LDH) (Worthington Biochemical Cat#2756); Pyruvate Kinase (PK) (Sigma Cat#P-9136); ATP (Sigma Cat#A-3377, FW=551); Greiner 384-well UV star plate; and purified and unphosphorylated T3151 Abl kinase domain.
Stock Solutions: 10 mM NADH (7.09 mg/ml in miliQH2O) made fresh daily; 10 mM Abl substrate peptide (13.4 mg/ml in miliQH2O) stored at −20° C.; 100 mM HEPES buffer, pH 7.5 (5 ml 1M stock+45 ml miliQH2O); 100mM MgCl2 (5 ml 2M MgCl2+95 ml dH2O); 100 mM PEP (23.4 mg/ml in dH2O) stored at −20° C.; 10mM ATP (5.51 mg/ml in dH2O) stored at −20° C. (diluted 50 μl into total of 10 ml miliQH2O daily=50 μM ATP working stock); 1000 U/ml PK (U/mg varies with lot) flash-frozen under liquid N2 and stored at −80° C.; and 1000 U/ml LDH (U/mg varies with lot) flash-frozen under liquid N2 and stored at −80° C.
Standard Assay Setup for 384-well format (50 μl reaction): 300 μM NADH; 10 mM MgCl2; 2 mM PEP; 45 U/ml PK; 60 U/ml LDH; 200 μM Abl substrate peptide; 2.5 μl test compound (in DMSO); 2 μg/ml Abl kinase domain; 10 μM ATP; 100 mM HEPES buffer. Positive controls contained DMSO with no test compound. Negative controls contained 5 μl of 0.5M EDTA (50 mM in the assay). The dephosphorylated form of the c-Abl T315I mutant was used in the biochemical screening assays. The kinase reaction was initiated at time t=0 by the addition of ATP.
Activity was measured by following the time-dependent loss of NADH by absorbance spectroscopy at 340 nm. The linear portion of the resulting progress curve was then analyzed by linear regression to get the activity in absorbance units/time, reported as the slope of that best fit line (moles/unit time can be calculated from using molar extinction coefficient for NADH at 340 nm, 6250M^−1 cm^−1).
Screening data was evaluated using the equation: Z′=1-[3*(σ++σ−)/|μ+−μ−|] (Zhang, et al., 1999 J Biomol Screening 4(2) 67-73), where μ denotes the mean and σ the standard deviation. The subscript designates positive or negative controls. The Z′ score for a robust screening assay should be ≧0.50. The typical threshold=μ+−3*σ+−. Any value that falls below the threshold was designated a “hit”.
Dose response was analyzed using the equation: y=min+{(max−min)/(1+10^[compound]−logIC50)}, where y is the observed initial slope, max=the slope in the absence of inhibitor, min=the slope at infinite inhibitor, and the IC50 is the [compound] that corresponds to ½ the total observed amplitude (Amplitude=max−min).
To measure modulation, activation, or inhibition of Abl KD, a test compound was added to the assay at a range of concentrations. Inhibitors may inhibit Abl KD activity at an IC50 in the micromolar range, the nanomolar range, or, for example, in the subnanomolar range.
An open-reading frame for c-Abl was amplified from a Mus musculus (mouse) cDNA library prepared from freshly harvested mouse liver using a commercially available kit (Invitrogen) by PCR using the following primers: […]
The c-Abl T3151 KD (kinase domain) was purified as follows. […]

[2] = target: T2, ABL P210WT BAF3 cells (Homo sapiens, UniProt P00519); assay: 96-well XTT cell survival assay, BaF3 ABL P210WT; assay type: cell-based; conditions: ABL P210 WT, 72 hours, read-out: CELL BIO ABL P210WT BAF3 XTT (IC50)
T2 construct: ABL P210WT BAF3; fused on or other part: P11274 (Breakpoint cluster region protein)
Protocol: (§1) MV4-11 and THP cells were maintained in Iscove's Modified Dulbecco's Medium supplemented with 10% fetal bovine serum (FBS) and penicillin/streptomycin, Ba/F3 cells were maintained in RPMI 1640 supplemented with 10% FBS, penicillin/streptomycin and 5 ng/ml recombinant mouse IL-3.
(§2) Compounds were tested in the following assays in duplicate.
(§3) 96-well XTT assay: Cells (e.g. BaF3 315I, M3511, or E255K cells) were grown in growth media containing various concentrations of compounds (duplicates) on a 96-well plate for 72 hours at 37° C. The starting cell number was 5000-8000 cells per well and volume was 120 μl. At the end of the 72-hour incubation, 40 μl of XTT labeling mixture (50:1 solution of sodium 3′-[1-(phenylamino-carbonyl)-3,4-tetrazolium]-bis(4-methoxy-6-nitro) benzene sulfonic acid hydrate and Electron-coupling reagent: PMS (N-methyl dibenzopyrazine methyl sulfate) were added to each well of the plate. After an additional 2-6 hours of incubation at 37° C., the absorbance reading at 405 nm with background correction at 650 nm was measured with a spectrophotometer.

[3] = target: T3, ABL T315I BAF3 cells (Homo sapiens, UniProt P00519, T315I, cells depend on it); assay: 96-well XTT cell survival assay, BaF3 ABL T315I; assay type: cell-based; conditions: 72 hours, read-out: CELL BIO ABL T315I BAF3 XTT (IC50)
T3 construct: ABL T315I BAF3; fused on or other part: P11274 (Breakpoint cluster region protein)
Protocol: as §1, §2, §3

| Structure (SMILES) | ABL_T315I_0P (IC50) [1] | GI50 [2] | GI50 [3] | IC50 [1] |
| --- | --- | --- | --- | --- |
| CN(C)C(=O)C(O)c1cc(-c2cnc3[nH]cc(-c4ccccc4F)c3c2Cl)cnc1N (stereo not shown) | D (<0.01 μM) | 100 to 1000 nM | 10 to 100 nM | – |
| NC(=O)C(O)c1cncc(-c2cnc3[nH]cc(-c4ccccc4F)c3c2Cl)c1 (stereo not shown) | D (<0.01 μM) | > 1000 nM | > 1000 nM | – |
| CNc1ncccc1-c1c[nH]c2ncc(-c3cncc(C(O)C(=O)N(C)C)c3)c(Cl)c12 (stereo not shown) | C (0.1-0.01 μM) | > 1000 nM | > 1000 nM | – |
| COc1cc(Cl)c(F)cc1-c1c[nH]c2ncc(-c3cnc(N)c(C(=O)N(C)C)c3)cc12 | – | < 10 nM | 10 to 100 nM | < 10 nM |
| CN(C)C(=O)c1cncc(-c2cnc3[nH]cc(-c4ccccc4F)c3c2Cl)c1 | D (<0.01 μM) | 100 to 1000 nM | 100 to 1000 nM | – |
| CN(C)C(=O)c1cncc(-c2cnc3[nH]cc(-c4ccc(F)cc4)c3c2Cl)c1 | C (0.1-0.01 μM) | 100 to 1000 nM | > 1000 nM | – |
| CN(C)C(=O)c1cncc(-c2cnc3[nH]cc(-c4cccc(F)c4F)c3c2Cl)n1 | D (<0.01 μM) | 100 to 1000 nM | 100 to 1000 nM | – |
| CNC(=O)c1cncc(-c2cnc3[nH]cc(-c4ccccc4F)c3c2Cl)n1 | C (0.1-0.01 μM) | > 1000 nM | > 1000 nM | – |
| OC(c1cncc(-c2cnc3[nH]cc(-c4ccccc4F)c3c2Cl)c1)c1ncccc1F (stereo not shown) | D (<0.01 μM) | 100 to 1000 nM | 100 to 1000 nM | – |
| CN(C)C(=O)c1cc(-c2cnc3[nH]cc(-c4cc[nH]n4)c3c2Cl)cnc1N [2-Amino-5-[4-chloro-3-(1H-pyrazol-3-yl)-1H-pyrrolo[2,3-b]pyridin-5-yl]-N,N-dimethyl-nicotinamide] | C (0.1-0.01 μM) | > 1000 nM | > 1000 nM | – |

Further lines, with some results ahead:

| ABL_T315I_0P (IC50) [1] | Structure (SMILES) | GI50 [2] | GI50 [3] | IC50 [1] |
| --- | --- | --- | --- | --- |
| D (<0.01 μM) | CN(C)C(=O)c1cc(-c2cnc3[nH]cc(-c4cccc(F)c4F)c3c2Cl)cnc1N [2-Amino-5-[4-chloro-3-(2,3-difluoro-phenyl)-1H-pyrrolo[2,3-b]pyridin-5-yl]-N,N-dimethyl-nicotinamide] | 100 to 1000 nM | 100 to 1000 nM | – |
| D (<0.01 μM) | CN(C)C(=O)c1cc(-c2cnc3[nH]cc(-c4cc(F)ccc4F)c3c2Cl)cnc1N [2-Amino-5-[4-chloro-3-(2,5-difluoro-phenyl)-1H-pyrrolo[2,3-b]pyridin-5-yl]-N,N-dimethyl-nicotinamide] | 10 to 100 nM | 100 to 1000 nM | – |
| C (0.1-0.01 μM) | COc1cc(C#N)ccc1-c1c[nH]c2ncc(-c3cnc(N)c(C(=O)N(C)C)c3)c(Cl)c12 [2-Amino-5-[4-chloro-3-(4-cyano-2-methoxy-phenyl)-1H-pyrrolo[2,3-b]pyridin-5-yl]-N,N-dimethyl-nicotinamide] | – | – | – |
| B (1.0-0.1 μM) | CN(C)C(=O)C(O)c1cncc(-c2cnc3[nH]nc(-c4ccccc4)c3c2Cl)c1 (stereo not shown) [2-[5-(4-Chloro-3-phenyl-1H-pyrazolo[3,4-b]pyridin-5-yl)-pyridin-3-yl]-2-hydroxy-N,N-dimethyl-acetamide] | – | – | – |
| B (1.0-0.1 μM) | COc1ccccc1-c1c[nH]c2ncc(Br)c(NCCO)c12 [2-[5-Bromo-3-(2-methoxy-phenyl)-1H-pyrrolo[2,3-b]pyridin-4-ylamino]-ethanol] | – | – | – |
| B (1.0-0.1 μM) | CN(C)C(=O)C(O)c1cncc(-c2cnc3[nH]nc(-c4ccccc4F)c3c2Cl)c1 (stereo not shown) [2-{5-[4-Chloro-3-(2-fluoro-phenyl)-1H-pyrazolo[3,4-b]pyridin-5-yl]-pyridin-3-yl}-2-hydroxy-N,N-dimethyl-acetamide] | – | – | – |
| B (1.0-0.1 μM) | CN(C)C(=O)C(=O)c1cncc(-c2cnc3[nH]cc(-c4ccc(F)cc4)c3c2Cl)c1 [2-{5-[4-Chloro-3-(4-fluoro-phenyl)-1H-pyrrolo[2,3-b]pyridin-5-yl]-pyridin-3-yl}-N,N-dimethyl-2-oxo-acetamide] | – | – | – |
| B (1.0-0.1 μM) | CC(C)c1ncncc1-c1c[nH]c2ncc(-c3cncc(C(O)C(=O)N(C)C)c3)c(Cl)c12 (stereo not shown) [2-{5-[4-Chloro-3-(4-isopropyl-pyrimidin-5-yl)-1H-pyrrolo[2,3-b]pyridin-5-yl]-pyridin-3-yl}-2-hydroxy-N,N-dimethyl-acetamide] | – | – | – |
| B (1.0-0.1 μM) | COc1ccccc1-c1c[nH]c2ncc(-c3cncc(C(O)C(=O)N(C)C)c3)c(N(C)C)c12 (stereo not shown) [2-{5-[4-Dimethylamino-3-(2-methoxy-phenyl)-1H-pyrrolo[2,3-b]pyridin-5-yl]-pyridin-3-yl}-2-hydroxy-N,N-dimethyl-acetamide] | – | – | – |
| B (1.0-0.1 μM) | COc1ccccc1-c1c[nH]c2ncc(-c3cnn(C)c3)c(N)c12 [3-(2-Methoxy-phenyl)-5-(1-methyl-1H-pyrazol-4-yl)-1H-pyrrolo[2,3-b]pyridin-4-ylamine] | – | – | – |
| A (>1.0 μM) | CSc1c(Br)cnc2[nH]cc(I)c12 [5-Bromo-3-iodo-4-methylsulfanyl-1H-pyrrolo[2,3-b]pyridine] | – | – | – |
| C (0.1-0.01 μM) | COc1ccccc1-c1c[nH]c2ncc(Br)c(Cl)c12 [5-Bromo-4-chloro-3-(2-methoxy-phenyl)-1H-pyrrolo[2,3-b]pyridine] | – | – | – |
